# Patent US7517901B2, “p38 MAP kinase inhibitors and methods for using the same” (Roche Palo Alto LLC, priority 2005, dated 2009)
# pIC50: −log10 of the molar value.
# Assays:
# p38 MAP kinase = target: T1, p38 MAP kinase (Homo sapiens, UniProt Q16539); experiment: p38 (MAP) kinase in vitro assay (transfer of γ-33P from ATP to Myelin Basic Protein); assay type: biochemical; settings: phosphorylated recombinant p38 MAP kinase, MBP substrate, γ-33P-ATP, 30° C.
# T1 construct: made in house; host or cells: E. coli (co-expressed with SEK-1 and MEKK)
# Protocol: This example illustrates a p38 (MAP) kinase in vitro assay useful for evaluating the compounds of the invention.
# The p38 MAP kinase inhibitory activity of compounds of this invention in vitro was determined by measuring the transfer of the γ-phosphate from γ-^33P-ATP by p-38 kinase to Myelin Basic Protein (MBP), using a minor modification of the method described in Ahn, et al., J. Biol. Chem. 266:4220-4227 (1991).
# The phosphorylated form of the recombinant p38 MAP kinase was co-expressed with SEK-1 and MEKK in E. Coli (see, Khokhlatchev, et al., J. Biol. Chem. 272:11057-11062 (1997)) and then purified by affinity chromatography using a Nickel column.
# The phosphorylated p38 MAP kinase was diluted in kinase buffer (20 mM 3-(N-morpholino)propanesulfonic acid, pH 7.2, 25 mM β-glycerol phosphate, 5 mM ethylene glycol-bis(beta-aminoethyl ether)-N,N,N′,N′-tetraacetic acid, 1 mM sodium ortho-vanadate, 1 mM dithiothreitol, 40 mM magnesium chloride). Test compound dissolved in DMSO or only DMSO (control) was added and the samples were incubated for 10 min at 30° C. The kinase reaction was initiated by the addition of a substrate cocktail containing MBP and γ-^33P-ATP. […] The phosphorylated MBP was then separated from the residual γ-^33P-ATP using a phosphocellulose membrane (Millipore, Bedford, Mass.) and quantitated using a scintillation counter (Packard, Meriden, Conn.).
# T1 sequence (Q16539 whole entry): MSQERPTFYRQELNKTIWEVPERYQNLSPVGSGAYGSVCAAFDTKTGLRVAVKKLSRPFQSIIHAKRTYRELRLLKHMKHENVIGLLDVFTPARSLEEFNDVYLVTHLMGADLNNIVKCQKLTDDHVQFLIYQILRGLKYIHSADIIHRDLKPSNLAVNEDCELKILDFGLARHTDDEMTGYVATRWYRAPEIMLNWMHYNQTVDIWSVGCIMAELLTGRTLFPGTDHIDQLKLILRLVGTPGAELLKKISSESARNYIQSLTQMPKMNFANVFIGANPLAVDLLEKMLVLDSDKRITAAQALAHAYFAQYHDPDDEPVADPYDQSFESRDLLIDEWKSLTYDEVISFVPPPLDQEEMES
melting point [°C],pIC50 (p38 MAP kinase),SMILES
187 to 189,,"O=S(=O)(Nc1ccc2c(-c3ccccc3Cl)n[nH]c2c1)c1cccc(Cl)c1 [Compound 12, 3-Chloro-N-[3-(2-chloro-phenyl)-1H-indazol-6-yl]-benzenesulfonamide]"
,~7.70,"O=S(=O)(Nc1ccc2c(-c3ccccc3Cl)n[nH]c2c1)c1cccc(Cl)c1F [Compound 46, 3-Chloro-N-[3-(2-chloro-phenyl)-1H-indazol-6-yl]-2-fluoro-benzenesulfonamide]"
